Assays:
[1] = Acute toxicity (lethal dose); format: in vivo; details: mice, estimated from death 72 hours following administration
Method: Each test compound suspended in 1% tragacanth-saline was administered intraperitoneally or orally to male mice of ddY-strain (body weight 16-24 g). The lethal dose was estimated from the death of animals 72 hours following administration.

[2] = Anti-inflammatory activity for oral route (carrageenin edema of hind paw); format: in vivo, male rats of Wistar-strain; details: for anti-inflammatory effect for oral route (relative inhibition versus indomethacin): 10mg/kg, percent inhibition divided by that of indomethacin, edema measured after 3 hours
Method: A group of five male rats of Wistar-strain (body weight 100-150 g) were orally given each test compound suspended in 0.5% tragacanth-saline. After one hour 1.0% carrageenin suspended in the water for injection was injected subcutaneously to a hind paw.

[3] = Ulcerogenic activity on rat stomach; format: in vivo, Male Wistar rats; details: oral, 20 mg/kg, 18 hours after administration; sum of area of erosion and ulcer
Method: Male Wistar rats weighing 200-220 g were fasted for 24 hours. Indomethacin and the test drugs were suspended with 0.5% tragacanth solution, and these suspensions were given the animals orally at each dose of 20 mg/kg. The animals were sacrificed with ether 18 hours after administration. The excised stomachs were filled with 1% formalin solution and the whole were immersed in the 1% formalin solution for fixation. Thereafter, an incision was made parallel to the greater curvature to examine whether or not an erosion or ulcer occurs. The degree of erosion and ulcer was represented by the sum of area (mm^2).

SMILES	acute toxicity for oral route (lethal dose) [1] [mg/kg]	anti-inflammatory effect for oral route (relative inhibition versus indomethacin) [2]	gastric ulcer index [3] [mm^2]	mean percent inhibition of carrageenin edema ([2]; 10 mg/kg) [%]
COc1ccc2c(c1)c(CC(=O)OCc1ccccc1F)c(C)n2C(=O)c1ccc(Cl)cc1	> 500	0.76	0.50 ± 0.30	
COc1ccc2c(c1)c(CC(=O)OCc1cccc(F)c1)c(C)n2C(=O)c1ccc(Cl)cc1	> 500	0.68	0.50 ± 0.38	
COc1ccc2c(c1)c(CC(=O)OCc1ccc(F)cc1)c(C)n2C(=O)c1ccc(Cl)cc1	> 500	0.41	0.13 ± 0.08	
COc1ccc2c(c1)c(CC(=O)OCc1ccccc1C)c(C)n2C(=O)c1ccc(Cl)cc1	> 500		0.19 ± 0.13	
COc1ccc2c(c1)c(CC(=O)OCc1cccc(C)c1)c(C)n2C(=O)c1ccc(Cl)cc1	200 to 500		0.13 ± 0.08	
COc1ccc2c(c1)c(CC(=O)OCc1ccc(C)cc1)c(C)n2C(=O)c1ccc(Cl)cc1	500	1.00	0.88 ± 0.39	
COc1ccc2c(c1)c(CC(=O)O)c(C)n2C(=O)c1ccc(Cl)cc1 [indomethacin, reference compound]	10 to 20	1.0	6.75 ± 1.98	41.1

Reference: patent US4165428A, “Indoleacetic acid ester derivatives” (Hisamitsu Pharmaceutical Co., Inc., priority 1976, dated 1979)
